# Assay results as given in patent publication US20230165979A1, “COPPER-CONTAINING THERAGNOSTIC COMPOSITIONS AND METHODS OF USE” (Cornell University, priority 2020, published 2023).
# Experiments:
# LNCaP tumors [1] = assay: Published biodistribution of 177Lu-labeled comparison ligands in the same animal model; type: in vivo, mice; details: over 96 h p.i.; from previously determined values
# Method: When tumor size reached approximately 200 mm^3, mice (n=4/time point) were administered 3.8±0.1 MBq [^64Cu]Cu-RPS-085 or 0.8±0.005 MBq [^67Cu]Cu-RPS-085 by intravenous injection. The total mass dose received by each animal was approximately 50 ng (31 pmol) and approximately 28 ng (17 pmol) for the [^64Cu]Cu-RPS-085 and [^67Cu]Cu-RPS-085 studies, respectively. The mice were sacrificed at 4 h, 24 h, or 48 h p.i. ([^64Cu]Cu-RPS-085) or 4 h, 24 h, and 96 h ([^67Cu]Cu-RPS-085). A blood sample was collected, and the following tissues were collected and weighed wet using a digital balance: heart, lungs, liver, stomach, small intestine, large intestine, spleen, pancreas, kidneys, muscle, bone, and tumor. The tissues were counted on a Wizard2 Automatic Gamma Counter (Perkin Elmer, USA) against a 1% injected dose standard. The counts were corrected for decay and for activity injected, and tissue uptake was expressed as percent injected dose per gram (% ID/g). Standard error of the mean (SEM) was calculated for each data point. Statistical analyses were performed using an unpaired t test with GraphPad Prism software. A P value of less than 0.05 was considered significant. […] Published values for [177Lu]Lu-RPS-063 are shown for comparison; all concentrations are expressed as percent injected dose per organ.
# LNCaP tumors [2] = details: over 96 h p.i.; same animal model; previously determined; cited from earlier work
substance,measurement,setting,value
[^177Lu]Lu-PSMA-617,Ãtumor/Ãkidney ratio,LNCaP tumors [1],2.1
same,accumulated activity (Ã) in LNCaP tumors,LNCaP tumors [2],544 (% ID/g)·h
same,accumulated activity (Ã) in kidneys,LNCaP tumors [2],260 (% ID/g)·h
